Results as given in ChEMBL document CHEMBL1156495 (J Biol Chem, 2007).
Calls of active or inactive are those of the source. No cut-off for these calls is given here. Residues, ends and D or L forms follow the SMILES beside them.

Legend:
Plasma = test: Anticoagulant activity in human citreated plasma assessed as prolongation of fibrinogen clotting time; assay type: functional, cell-free
Homo sapiens [1] = species on record: Homo sapiens; test: Inhibition of amidolytic activity of human alpha-thrombin upto 24 hrs by RP-HPLC
Homo sapiens [2] = species on record: Homo sapiens; test: Inhibition of amidolytic activity of human alpha-thrombin after 60 mins by RP-HPLC
[3] = molecular target: Urokinase-type plasminogen activator (Homo sapiens) (UniProt P00749); test: Inhibition of human urokinase at 1 uM
Homo sapiens [4] = species on record: Homo sapiens; test: Inhibition of human alpha-thrombin at 1 uM
[5] = molecular target: Plasminogen (Homo sapiens) (UniProt P00747); test: Inhibition of human plasmin at 1 uM
[6] = molecular target: Tissue-type plasminogen activator (Homo sapiens) (UniProt P00750); test: Inhibition of human tissue plasminogen activator at 1 uM
[7] = molecular target: Vitamin K-dependent protein C (Homo sapiens) (UniProt P04070); test: Inhibition of human Activated protein C at 1 uM
[8] = molecular target: T1, Coagulation factor XII (Homo sapiens) (UniProt P00748); test: Inhibition of human factor 12a at 1 uM
T1 sequence (whole entry): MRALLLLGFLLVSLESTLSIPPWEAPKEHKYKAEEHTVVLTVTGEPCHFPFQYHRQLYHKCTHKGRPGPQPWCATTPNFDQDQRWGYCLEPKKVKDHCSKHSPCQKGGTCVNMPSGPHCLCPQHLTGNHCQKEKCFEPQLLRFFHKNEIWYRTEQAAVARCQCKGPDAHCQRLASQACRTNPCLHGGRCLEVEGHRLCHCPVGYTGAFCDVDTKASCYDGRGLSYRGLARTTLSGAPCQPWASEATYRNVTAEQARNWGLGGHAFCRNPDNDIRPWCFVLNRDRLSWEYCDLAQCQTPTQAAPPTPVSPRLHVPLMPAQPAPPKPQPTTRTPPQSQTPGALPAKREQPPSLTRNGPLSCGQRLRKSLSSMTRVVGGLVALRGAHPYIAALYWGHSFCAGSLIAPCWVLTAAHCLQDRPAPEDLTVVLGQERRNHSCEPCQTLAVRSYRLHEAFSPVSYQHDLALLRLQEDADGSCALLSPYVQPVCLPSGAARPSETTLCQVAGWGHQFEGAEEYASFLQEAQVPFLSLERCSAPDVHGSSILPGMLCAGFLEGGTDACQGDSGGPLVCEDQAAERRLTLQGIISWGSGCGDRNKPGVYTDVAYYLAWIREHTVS

[9] = molecular target: Coagulation factor XI (Homo sapiens) (UniProt P03951); test: Inhibition of human factor 11a at 1 uM
[10] = molecular target: Coagulation factor X (Homo sapiens) (UniProt P00742); test: Inhibition of human factor 10a at 1 uM
[11] = molecular target: Coagulation factor IX (Homo sapiens) (UniProt P00740); test: Inhibition of human factor 9a at 1 uM
[12] = molecular target: T2, Coagulation factor VII (Homo sapiens) (UniProt P08709); test: Inhibition of human factor 7a at 1 uM
T2 sequence (whole entry): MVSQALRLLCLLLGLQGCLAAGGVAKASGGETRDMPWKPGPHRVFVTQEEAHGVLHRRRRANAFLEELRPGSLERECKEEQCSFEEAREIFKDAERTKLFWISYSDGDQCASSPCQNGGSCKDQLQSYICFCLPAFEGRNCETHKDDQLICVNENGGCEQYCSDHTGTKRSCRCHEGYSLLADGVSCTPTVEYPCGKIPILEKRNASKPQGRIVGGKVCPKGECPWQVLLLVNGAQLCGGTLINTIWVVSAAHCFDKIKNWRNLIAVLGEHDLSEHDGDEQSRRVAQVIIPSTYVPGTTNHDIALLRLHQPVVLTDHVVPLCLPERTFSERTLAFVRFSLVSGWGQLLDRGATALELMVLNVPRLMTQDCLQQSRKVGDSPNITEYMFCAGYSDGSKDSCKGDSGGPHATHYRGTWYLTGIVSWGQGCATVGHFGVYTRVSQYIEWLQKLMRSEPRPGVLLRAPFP

[13] = molecular target: Plasma kallikrein (Homo sapiens) (UniProt P03952); test: Inhibition of human kallikrein at 1 uM
Homo sapiens [14] = species on record: Homo sapiens; test: Inhibition of human chymotrypsin at 1 uM
Trypsin (Homo sapiens) [15] = molecular target: T3, Trypsin (Homo sapiens) (UniProt P07477+P07478+P35030); test: Inhibition of human trypsin at 1 uM; assay type: protein assay
[16] = molecular target: Plasminogen (Homo sapiens) (UniProt P00747); test: Inhibition of human plasmin at 100 uM
Trypsin (Homo sapiens) [17] = molecular target: T3, Trypsin (Homo sapiens); test: Inhibition of human trypsin at 100 uM; assay type: protein assay
[18] = molecular target: Coagulation factor XI (Homo sapiens) (UniProt P03951); test: Inhibition of human factor 11a at 100 uM

Chain of Plasminogen (Homo sapiens) (P00747 97-580 limits assumed): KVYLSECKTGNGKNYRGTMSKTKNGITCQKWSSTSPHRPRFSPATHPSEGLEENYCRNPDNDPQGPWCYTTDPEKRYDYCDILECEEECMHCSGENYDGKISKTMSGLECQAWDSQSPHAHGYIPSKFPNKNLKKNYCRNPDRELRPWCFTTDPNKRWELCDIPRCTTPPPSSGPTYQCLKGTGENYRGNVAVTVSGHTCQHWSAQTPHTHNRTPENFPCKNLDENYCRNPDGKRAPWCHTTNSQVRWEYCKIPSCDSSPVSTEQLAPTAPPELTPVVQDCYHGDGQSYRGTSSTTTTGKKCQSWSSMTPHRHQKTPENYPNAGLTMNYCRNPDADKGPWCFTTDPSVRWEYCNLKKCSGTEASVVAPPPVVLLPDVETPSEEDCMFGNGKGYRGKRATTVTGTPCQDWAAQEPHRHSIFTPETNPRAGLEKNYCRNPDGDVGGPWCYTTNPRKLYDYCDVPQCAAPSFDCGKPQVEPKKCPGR
Chain of Plasminogen (Homo sapiens) (P00747 581-810 limits assumed): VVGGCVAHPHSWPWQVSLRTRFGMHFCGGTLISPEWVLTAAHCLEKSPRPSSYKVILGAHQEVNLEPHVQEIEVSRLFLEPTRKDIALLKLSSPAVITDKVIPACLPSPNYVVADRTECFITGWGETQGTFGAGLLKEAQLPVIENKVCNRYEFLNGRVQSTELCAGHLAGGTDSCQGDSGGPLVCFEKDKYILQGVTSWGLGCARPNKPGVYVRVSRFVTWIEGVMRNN
Chain of Coagulation factor XI (Homo sapiens) (P03951 19-387 limits assumed): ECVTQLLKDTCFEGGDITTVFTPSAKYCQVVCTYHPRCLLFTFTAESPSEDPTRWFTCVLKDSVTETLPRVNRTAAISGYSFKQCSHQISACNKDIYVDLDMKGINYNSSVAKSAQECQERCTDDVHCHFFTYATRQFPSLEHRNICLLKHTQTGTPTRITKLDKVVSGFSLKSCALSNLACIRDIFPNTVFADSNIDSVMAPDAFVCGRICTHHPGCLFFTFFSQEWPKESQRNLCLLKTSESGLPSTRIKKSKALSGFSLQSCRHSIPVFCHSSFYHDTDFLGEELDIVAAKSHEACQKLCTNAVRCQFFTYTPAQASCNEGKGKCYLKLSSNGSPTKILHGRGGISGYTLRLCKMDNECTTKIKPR
Chain of Coagulation factor XI (Homo sapiens) (P03951 388-625 limits assumed): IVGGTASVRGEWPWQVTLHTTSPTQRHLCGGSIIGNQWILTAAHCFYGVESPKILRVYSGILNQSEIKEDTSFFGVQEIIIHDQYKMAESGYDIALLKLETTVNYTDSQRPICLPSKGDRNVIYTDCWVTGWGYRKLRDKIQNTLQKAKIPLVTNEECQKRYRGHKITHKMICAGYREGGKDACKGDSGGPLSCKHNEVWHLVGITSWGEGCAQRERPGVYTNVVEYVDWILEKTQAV
Chain of Coagulation factor X (Homo sapiens) (P00742 41-179 limits assumed): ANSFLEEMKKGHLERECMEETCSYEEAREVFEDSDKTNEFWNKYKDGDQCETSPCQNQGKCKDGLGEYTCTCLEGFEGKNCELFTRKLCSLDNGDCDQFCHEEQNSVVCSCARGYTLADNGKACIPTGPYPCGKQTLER
Chain of Coagulation factor X (Homo sapiens) (P00742 235-488 limits assumed): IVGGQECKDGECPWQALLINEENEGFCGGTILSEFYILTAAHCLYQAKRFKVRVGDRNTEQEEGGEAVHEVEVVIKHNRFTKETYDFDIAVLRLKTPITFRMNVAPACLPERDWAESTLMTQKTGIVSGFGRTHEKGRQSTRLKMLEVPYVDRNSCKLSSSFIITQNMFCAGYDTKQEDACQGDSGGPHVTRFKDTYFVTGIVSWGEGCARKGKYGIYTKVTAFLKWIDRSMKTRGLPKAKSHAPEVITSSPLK
Chain of Coagulation factor IX (Homo sapiens) (P00740 47-191 limits assumed): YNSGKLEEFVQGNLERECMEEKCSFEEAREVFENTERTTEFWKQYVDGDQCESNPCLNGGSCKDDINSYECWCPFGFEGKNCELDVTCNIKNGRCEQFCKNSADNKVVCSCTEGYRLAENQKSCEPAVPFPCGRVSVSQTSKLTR
Chain of Coagulation factor IX (Homo sapiens) (P00740 227-461 limits assumed): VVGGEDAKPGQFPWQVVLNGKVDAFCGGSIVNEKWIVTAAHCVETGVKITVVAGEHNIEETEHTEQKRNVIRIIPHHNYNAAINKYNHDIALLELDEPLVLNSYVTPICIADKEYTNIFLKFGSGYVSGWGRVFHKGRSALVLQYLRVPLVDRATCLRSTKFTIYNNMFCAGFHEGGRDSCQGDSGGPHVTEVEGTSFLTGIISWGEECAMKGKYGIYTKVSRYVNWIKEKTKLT
Chain of Tissue-type plasminogen activator (Homo sapiens) (P00750 36-562 limits assumed): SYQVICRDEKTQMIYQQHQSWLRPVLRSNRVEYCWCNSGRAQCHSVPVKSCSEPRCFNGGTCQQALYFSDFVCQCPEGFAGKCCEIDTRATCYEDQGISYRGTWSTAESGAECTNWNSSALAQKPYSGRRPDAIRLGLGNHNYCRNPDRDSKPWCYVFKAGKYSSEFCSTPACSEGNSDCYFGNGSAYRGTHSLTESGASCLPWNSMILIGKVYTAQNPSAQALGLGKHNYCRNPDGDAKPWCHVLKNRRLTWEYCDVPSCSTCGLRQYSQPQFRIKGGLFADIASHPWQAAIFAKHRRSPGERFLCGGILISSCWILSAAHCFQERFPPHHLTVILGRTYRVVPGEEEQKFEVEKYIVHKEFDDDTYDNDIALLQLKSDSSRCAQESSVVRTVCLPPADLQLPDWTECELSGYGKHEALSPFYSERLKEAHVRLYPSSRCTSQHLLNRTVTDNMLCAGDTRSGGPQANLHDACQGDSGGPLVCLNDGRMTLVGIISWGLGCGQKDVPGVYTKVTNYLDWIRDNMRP
Chain of Vitamin K-dependent protein C (Homo sapiens) (P04070 43-197 limits assumed): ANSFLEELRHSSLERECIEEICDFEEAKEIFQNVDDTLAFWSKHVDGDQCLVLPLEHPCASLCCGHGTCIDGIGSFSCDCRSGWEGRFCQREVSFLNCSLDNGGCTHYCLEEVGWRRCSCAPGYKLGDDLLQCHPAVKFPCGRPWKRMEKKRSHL
Chain of Vitamin K-dependent protein C (Homo sapiens) (P04070 212-461 limits assumed): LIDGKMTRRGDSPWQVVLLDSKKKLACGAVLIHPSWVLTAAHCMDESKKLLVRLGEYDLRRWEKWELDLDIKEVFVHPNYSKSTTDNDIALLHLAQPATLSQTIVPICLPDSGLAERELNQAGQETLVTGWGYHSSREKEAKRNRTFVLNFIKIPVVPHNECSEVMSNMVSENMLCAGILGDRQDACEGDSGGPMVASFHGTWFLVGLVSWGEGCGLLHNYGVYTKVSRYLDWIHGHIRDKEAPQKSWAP
Chain of Plasma kallikrein (Homo sapiens) (P03952 20-390 limits assumed): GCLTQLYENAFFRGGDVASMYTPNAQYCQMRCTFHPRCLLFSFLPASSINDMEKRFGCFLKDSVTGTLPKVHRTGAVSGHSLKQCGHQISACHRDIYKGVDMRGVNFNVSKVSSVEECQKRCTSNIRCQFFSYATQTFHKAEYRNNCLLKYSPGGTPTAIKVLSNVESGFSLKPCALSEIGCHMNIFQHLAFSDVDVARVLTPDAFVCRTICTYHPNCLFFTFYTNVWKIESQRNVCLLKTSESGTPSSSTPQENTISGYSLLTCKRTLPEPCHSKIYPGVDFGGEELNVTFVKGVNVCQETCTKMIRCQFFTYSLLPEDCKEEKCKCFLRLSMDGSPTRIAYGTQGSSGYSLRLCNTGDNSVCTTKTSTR
Chain of Plasma kallikrein (Homo sapiens) (P03952 391-638 limits assumed): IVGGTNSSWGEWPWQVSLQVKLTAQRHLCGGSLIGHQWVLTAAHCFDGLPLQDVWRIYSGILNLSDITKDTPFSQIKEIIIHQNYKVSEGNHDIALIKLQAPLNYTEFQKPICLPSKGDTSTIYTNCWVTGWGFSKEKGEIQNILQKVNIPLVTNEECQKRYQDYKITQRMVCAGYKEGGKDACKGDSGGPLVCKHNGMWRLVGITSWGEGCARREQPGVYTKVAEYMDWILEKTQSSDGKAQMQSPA

## CC[C@H](C)[C@H](NC(=O)[C@H](C)NC(=O)[C@H](CCC(=O)O)NC(=O)[C@H](Cc1ccccc1)NC(=O)[C@H](CC(=O)O)NC(=O)[C@H](Cc1ccccc1)NC(=O)[C@@H]1CCCN1C(=O)[C@@H]1CCCN1C(=O)[C@H](C)N)C(=O)N1CCC[C@H]1C(=O)N[C@@H](CCC(=O)O)C(=O)N[C@@H](CCC(=O)O)C(=O)N[C@@H](Cc1ccc(O)cc1)C(=O)N[C@@H](CC(C)C)C(=O)N[C@@H](CC(=O)O)C(=O)N[C@@H](CC(=O)O)C(=O)N[C@@H](CCC(=O)O)C(=O)N[C@@H](CO)C(=O)O (H-APPFDFEAIPEEYLDDES-OH)
Plasma
  Activity: Dose-dependent effect

## CC[C@H](C)[C@H](NC(=O)[C@H](C)NC(=O)[C@H](CCC(=O)O)NC(=O)[C@H](Cc1ccccc1)NC(=O)[C@H](CC(=O)O)NC(=O)[C@H](Cc1ccccc1)NC(=O)[C@@H]1CCCN1C(=O)[C@@H]1CCCN1C(=O)[C@H](C)NC(=O)[C@@H](NC(=O)[C@H](CCCCN)NC(=O)[C@H](Cc1cnc[nH]1)NC(=O)[C@H](CCSC)NC(=O)[C@H](CCCCN)NC(=O)[C@@H]1CCCN1C(=O)[C@H](CCC(=O)O)NC(=O)[C@H](C)NC(=O)[C@@H](NC(=O)[C@H](CC(=O)O)NC(=O)CNC(=O)[C@H](CCC(N)=O)NC(=O)[C@H](CC(=O)O)NC(=O)[C@@H](N)CO)C(C)C)[C@@H](C)O)C(=O)N1CCC[C@H]1C(=O)N[C@@H](CCC(=O)O)C(=O)N[C@@H](CCC(=O)O)C(=O)N[C@@H](Cc1ccc(O)cc1)C(=O)N[C@@H](CC(C)C)C(=O)N[C@@H](CC(=O)O)C(=O)N[C@@H](CC(=O)O)C(=O)N[C@@H](CCC(=O)O)C(=O)N[C@@H](CO)C(=O)O
Plasma
  Activity: Dose-dependent effect
Homo sapiens [1]
  Activity: inactive
Homo sapiens [2]
  Activity: Active
[3]
  inhibition: < 5%
Homo sapiens [4]
  Activity: Active
[5]
  inhibition: < 5%
[6]
  inhibition: < 5%
[7]
  inhibition: < 5%
[8]
  inhibition: < 5%
[9]
  inhibition: < 5%
[10]
  inhibition: < 5%
[11]
  inhibition: < 5%
[12]
  inhibition: < 5%
[13]
  inhibition: < 5%
Homo sapiens [14]
  inhibition: < 5%
Trypsin (Homo sapiens) [15]
  inhibition: < 5%
[16]
  inhibition: 20%
Trypsin (Homo sapiens) [17]
  inhibition: 20%
[18]
  inhibition: 20%

## CC[C@H](C)[C@H](NC(=O)[C@H](C)NC(=O)[C@H](CCC(=O)O)NC(=O)[C@H](Cc1ccccc1)NC(=O)[C@H](CC(=O)O)NC(=O)[C@H](Cc1ccccc1)NC(=O)[C@@H]1CCCN1C(=O)[C@@H]1CCCN1C(=O)[C@H](C)NC(=O)[C@@H](NC(=O)[C@H](CCCCN)NC(=O)[C@H](Cc1cnc[nH]1)NC(=O)[C@H](CCSC)NC(=O)[C@H](CCCCN)NC(=O)[C@@H]1CCCN1C(=O)[C@@H](N)CCC(=O)O)[C@@H](C)O)C(=O)N1CCC[C@H]1C(=O)N[C@@H](CCC(=O)O)C(=O)N[C@@H](CCC(=O)O)C(=O)N[C@@H](Cc1ccc(O)cc1)C(=O)N[C@@H](CC(C)C)C(=O)N[C@@H](CC(=O)O)C(=O)N[C@@H](CC(=O)O)C(=O)N[C@@H](CCC(=O)O)C(=O)N[C@@H](CO)C(=O)O
Plasma
  Activity: Dose-dependent effect
Homo sapiens [1]
  Activity: inactive
Homo sapiens [2]
  Activity: Active
